Results taken from ChEMBL document CHEMBL1201862, “PubChem BioAssay data set” (2004).
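Compound exposure: 48 hours, 5 concentrations, 96-well plates. GI50 = concentration required for 50% inhibition of growth.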 Activity calls are given as the source filed them. Rule as the data show it: active = GI50 up to about 1.1 µM and inactive = higher.

Key:
Experiment in all cases: NCI-60 cell line screen, 48 h
[1] = test system: 786-0
[2] = test system: A498
[3] = test system: A549
[4] = test system: ACHN
[5] = test system: BT-549
[6] = test system: CAKI-1
[7] = test system: CCRF-CEM
[8] = test system: COLO 205
[9] = test system: DU-145
[10] = test system: EKVX
[11] = test system: HCC 2998
[12] = test system: HCT-116
[13] = test system: HCT-15
[14] = test system: HL-60
[15] = test system: HOP-62
[16] = test system: HOP-92
[17] = test system: HT-29
[18] = test system: Hs-578T
[19] = test system: IGROV-1
[20] = test system: K562
[21] = test system: KM12
[22] = test system: LOX IMVI
[23] = test system: M14
[24] = test system: MCF7
[25] = test system: MDA-MB-231
[26] = test system: MDA-MB-435
[27] = test system: MDA-N
[28] = test system: MOLT-4
[29] = test system: Malme-3M
[30] = test system: NCI-H226
[31] = test system: NCI-H23
[32] = test system: NCI-H460
[33] = test system: NCI-H522
[34] = test system: NCI/ADR-RES
[35] = test system: OVCAR-3
[36] = test system: OVCAR-4
[37] = test system: OVCAR-5
[38] = test system: OVCAR-8
[39] = test system: PC-3
[40] = test system: RPMI-8226
[41] = test system: RXF 393
[42] = test system: SF-268
[43] = test system: SF-295
[44] = test system: SF-539
[45] = test system: SK-MEL-28
[46] = test system: SK-MEL-2
[47] = test system: SK-MEL-5
[48] = test system: SK-OV-3
[49] = test system: SN12C
[50] = test system: SNB-19
[51] = test system: SNB-75
[52] = test system: SR
[53] = test system: SW-620
[54] = test system: T47D
[55] = test system: TK-10
[56] = test system: U-251
[57] = test system: UACC-257
[58] = test system: UACC-62
[59] = test system: UO-31

For `Cc1cc(C)c2c(=N)c3ccccc3n(CCCCCCn3c4ccccc4c(=N)c4c(C)cc(C)nc43)c2n1`, the GI50 [1] was 0.224 µM (active), the GI50 [2] was 1.73 µM (inactive) and the GI50 [3] was 1.63 µM (inactive). For the same molecule, the GI50 [4] was 1.55 µM (inactive), the GI50 [5] was 1.56 µM (inactive) and the GI50 [6] was 1.45 µM (inactive). For the same molecule, the GI50 [7] was 0.266 µM (active), the GI50 [8] was 1.57 µM (inactive) and the GI50 [9] was 1.74 µM (inactive). For the same molecule, the GI50 [10] was 1.77 µM (inactive), the GI50 [11] was 0.172 µM (active) and the GI50 [12] was 0.18 µM (active). The GI50 [13] was 0.181 µM, the GI50 [14] was 0.28 µM (active) and the GI50 [15] was 0.598 µM (active). For the same molecule, the GI50 [16] was 1.58 µM (inactive), the GI50 [17] was 0.462 µM (active) and the GI50 [18] was 1.66 µM (inactive). For the same molecule, the GI50 [19] was 1.44 µM (inactive), the GI50 [20] was 0.3 µM (active) and the GI50 [21] was 0.346 µM (active). The GI50 [22] was 0.182 µM (active), the GI50 [23] was 1.85 µM (inactive) and the GI50 [24] was 0.435 µM (active). For the same molecule, the GI50 [25] was 0.447 µM (active), the GI50 [26] was 1.77 µM (inactive) and the GI50 [27] was 1.78 µM (inactive). For the same molecule, the GI50 [28] was 0.627 µM (active), the GI50 [29] was 1.63 µM (inactive) and the GI50 [30] was 1.66 µM (inactive). The GI50 [31] was 1.4 µM (inactive), the GI50 [32] was 0.859 µM (active) and the GI50 [33] was 1.39 µM (inactive). The GI50 [34] was 1.42 µM (inactive), the GI50 [35] was 1.66 µM (inactive) and the GI50 [36] was 1.43 µM (inactive). The GI50 [37] was 1.84 µM (inactive), the GI50 [38] was 1.68 µM (inactive) and the GI50 [39] was 1.28 µM (inactive). For the same molecule, the GI50 [40] was 0.305 µM (active), the GI50 [41] was 1.25 µM (inactive) and the GI50 [42] was 1.56 µM (inactive). The GI50 [43] was 1.36 µM (inactive), the GI50 [44] was 1.54 µM (inactive) and the GI50 [45] was 1.28 µM (inactive). The GI50 [46] was 1.66 µM (inactive), the GI50 [47] was 1.84 µM (inactive) and the GI50 [48] was 1.62 µM (inactive). For the same molecule, the GI50 [49] was 1.5 µM (inactive), the GI50 [50] was 0.767 µM (active) and the GI50 [51] was 0.628 µM (active). The GI50 [52] was 0.197 µM (active), the GI50 [53] was 0.209 µM (active) and the GI50 [54] was 1.92 µM (inactive). The GI50 [55] was 1.64 µM (inactive), the GI50 [56] was 0.252 µM (active) and the GI50 [57] was 1.64 µM (inactive). For the same molecule, the GI50 [58] was 1.77 µM (inactive) and the GI50 [59] was 1.56 µM (inactive).
`CCCCC1Cc2cc(OC)ccc2-c2n1c1cc(OC)ccc1[n+]2C.CCCCC1Cc2cc(OC)ccc2-c2n1c1ccc(OC)cc1[n+]2C` (stereo not drawn) was tested, and the GI50 [1] was 7.13 µM (inactive), the GI50 [2] was 16.9 µM (inactive) and the GI50 [3] was 1.48 µM (inactive). The GI50 [4] was 12.6 µM (inactive), the GI50 [5] was 1.66 µM (inactive) and the GI50 [6] was 35.8 µM (inactive). For the same molecule, the GI50 [7] was 2.64 µM (inactive), the GI50 [8] was 0.401 µM (active) and the GI50 [9] was 5.32 µM (inactive). The GI50 [10] was 0.466 µM (active), the GI50 [11] was 0.703 µM (active) and the GI50 [12] was 3.22 µM (inactive). The GI50 [13] was 21.7 µM, the GI50 [14] was 0.261 µM (active) and the GI50 [15] was 6.08 µM (inactive). For the same molecule, the GI50 [16] was 0.427 µM (active), the GI50 [17] was 1.97 µM (inactive) and the GI50 [18] was 2.77 µM (inactive). The GI50 [19] was 1.6 µM (inactive), the GI50 [20] was 0.475 µM (active) and the GI50 [21] was 0.873 µM (active). For the same molecule, the GI50 [22] was 2.87 µM (inactive), the GI50 [23] was 3.76 µM (inactive) and the GI50 [24] was 0.953 µM (active). For the same molecule, the GI50 [25] was 2.63 µM (inactive), the GI50 [26] was 0.944 µM (active) and the GI50 [27] was 1.47 µM (inactive). The GI50 [28] was 4.79 µM (inactive), the GI50 [29] was 0.935 µM (active) and the GI50 [30] was 2.92 µM (inactive). The GI50 [31] was 0.839 µM (active), the GI50 [32] was 3.65 µM (inactive) and the GI50 [33] was 0.681 µM (active). The GI50 [34] was > 100 µM (inactive), the GI50 [35] was 1.4 µM (inactive) and the GI50 [36] was 2.31 µM (inactive). For the same molecule, the GI50 [37] was 9.77 µM (inactive), the GI50 [38] was 2.75 µM (inactive) and the GI50 [39] was 2.6 µM (inactive). The GI50 [40] was 0.221 µM (active), the GI50 [41] was 14.2 µM (inactive) and the GI50 [42] was 1.3 µM (inactive). For the same molecule, the GI50 [43] was 2.39 µM (inactive), the GI50 [44] was 3.34 µM (inactive) and the GI50 [45] was 6.3 µM (inactive). The GI50 [46] was 2.46 µM (inactive), the GI50 [47] was 0.764 µM (active) and the GI50 [48] was 10 µM (inactive). For the same molecule, the GI50 [49] was 0.975 µM (active), the GI50 [50] was 0.904 µM (active) and the GI50 [51] was 6.19 µM (inactive). The GI50 [52] was 2.44 µM (inactive), the GI50 [53] was 2.82 µM (inactive) and the GI50 [54] was 0.656 µM (active). The GI50 [55] was 2.18 µM (inactive), the GI50 [56] was 0.332 µM (active) and the GI50 [57] was 1.04 µM (active). For the same molecule, the GI50 [58] was 0.528 µM (active) and the GI50 [59] was 15.5 µM (inactive).
